Source: publication PMC6962393, “Targeting the tumor vasculature with engineered cystine-knot miniproteins” (Nature Communications, 2020)
Where no end group is shown, it is not given here. The star is where a group is joined. Biotin = O=C1N[C@H]2[C@H](CS[C@H]2CCCCC(=O)*)N1

Legend:
[1] = test system: EDB in U-87 MG glioblastoma xenograft tumor sections; assay: Immunofluorescence staining of U-87 MG tumor tissue sections; design: species or system human U-87 MG grown as mouse xenograft; conditions: biotinylated miniprotein tetramerized with Cy3-labeled streptavidin, 6 µm sections
Description: Cryopreserved tumor pieces were cut in 6-µm-thick sections, fixed in ice cold acetone for 5 min, and air-dried. Slides were then blocked in PBS with 3% BSA at RT for 5 min. For staining of EDB, 1 µg of the respective biotinylated cystine-knot miniprotein was incubated with 2.9 µg streptavidin-Cy3 conjugate (Rockland Immunochemicals) at RT for 30 min. The pre-formed complex or 0.1 µg AF680-(MC-FN-010)3 and anti-mouse CD31 antibody (RB-10333-P1, Thermo Fisher) diluted 1:100 in PBS with 1% BSA was then added to the tumor sections and incubated for 30 min at 37 °C. Afterwards, slides were washed three times with PBS containing 1% BSA. CD31 staining of sections treated with pre-formed complex was performed with a rat anti-mouse CD31 IgG antibody (102416; BioLegend) diluted 1:100 in PBS with 1% BSA for 30 min at 37 °C and detected with a secondary […] IgG-Cy3 antibody (111-165-003; Jackson ImmunoResearch) diluted 1:400 in PBS with 1% BSA for 30 min at 37 °C. After three washing steps in PBS, cell nuclei were stained with Höchst 33342 (Thermo Fisher Scientific) diluted 1:5000 in PBS for 30 min at RT. Slides were washed again as described above and covered with coverslips in a thin layer of mounting medium (Dako). Images were captured with a Zeiss Apotome microscope (Carl Zeiss) and analyzed with ZEN software (Carl Zeiss).

[2] = target: T1, biotinylated human FN-67B89 (Homo sapiens, UniProt P02751); assay: Surface plasmon resonance, binding kinetics to FN-67B89; conditions: for binding of tag-free variant to FN-67B89 by SPR: Fig 2d, multi-cycle kinetics, 50 to 1000 nM
T1 construct: flanked by its surrounding type III domains (FN-67B89, amino acid G1080-E1455); made in house; host or cells: E. coli BL21 (DE3), pET-21a
Description: Binding kinetics of monomeric and trimeric cystine-knot miniprotein ligands to its target protein was determined using a Biacore T-100 device (GE Healthcare Life Science) with PBS-T as running buffer. For this, the biotinylated FN-67B89 protein (200–300 µg/mL) was captured by binding to a flow cell of an SA sensor chip (GE Healthcare Life Science). To analyze monomeric ligands, an immobilized target density of maximum 750 response units (RU) was applied and for trimeric variants a RU of maximum 400 was aimed for. Binding analysis of monomeric ligands was performed using a multi-cycle kinetic method with concentrations ranging from 50 to 4000 nM. A cycle started with an association period of 90 s, followed by a dissociation period of 420 s and a final regeneration step. Kinetic measurement was conducted applying a flow rate of 20 µL/min. Trimeric variants were analyzed under the same association and dissociation conditions, but using the single-cycle kinetic measurement mode in a constant flow of […]. In this case the analyte concentration was between 1.25 and 10 nM. Binding kinetics and steady-state analysis were calculated using a global kinetic fit model (1:1 Langmuir, Biacore T-100 Evaluation Software; GE Healthcare Life Science).

FN-B = assay: Hit identification ranking score (FN-B to BSA ELISA signal normalized to expression rate); type: binding, human; conditions: signal (FN-B) to noise (BSA) ELISA ratio normalized to expression rate of Trx-cystine-knot miniprotein; MCopt 1.0 library
Description: Single colonies were picked, sequenced, and transferred to a 96-well plate for small-scale expression in 1 mL autoinduction medium (MagicMedia™; Thermo Fisher Scientific). Protein production was conducted overnight at 30 °C and 220 rpm. Cells were harvested by centrifugation at 3000 × g for 15 min, lysed via incubation in buffer (20 mM Tris, 2 mM MgCl2, 20 mM NaCl, pH 8) containing 0.1 mg/mL lysozyme (Merck Millipore) and 5 U/mL benzonase (Merck Millipore) combined with a freeze–thaw cycle, and heated for 10 min at 80 °C. After a final centrifugation (3000 × g, 15 min, 4 °C) to remove cell debris, the supernatant was collected for E-PAGE™ and binding analysis. E-PAGE^TM (Life Technologies) was used as a high throughput gel system to simultaneously analyze 96-probes in parallel for a quantification of produced and heat-purified proteins. E-PAGE^TM analysis was performed according to the manufacturer's instructions. ELISA was used as a technique to analyze protein–protein interactions. […] The wells were washed three times with PBS-T (1× PBS with 0.1% (w/v) Tween-20), blocked with 1× Casein buffer (Sigma Aldrich) diluted in PBS for 2 h at RT, and washed again as described. 20 µL of supernatant containing the respective heat-purified fusion protein were added to 80 µL PBS-T or 200 nM of MC-Myc-010 fusion protein (wells with anti-c-myc antibody) diluted in PBS-T, applied to the cavities, and incubated for 1 h at 4 °C. After three times of washing with PBS-T, binding of the respective variant was detected with a horseradish peroxidase (HRP)-conjugated anti-S-tag antibody (ab18589 or ab19324; Abcam) 1:2000 diluted in PBS. Enzymatic reaction was measured with TMB as a chromogenic substrate and stopped with 0.2 M HCl after approximately 5 min. The measurement of absorbance at 450 nm was performed using an Infinite M200 PRO Microplate Reader (Tecan). […]
Ranking scores were calculated on the basis of the signal (FN -B) to noise (BSA)
ratios determined via ELISA and were further normalized to the expression rate of Trx -cystine-knot […]

[3] = test system: FN-6789 (type III domains 6–9 without EDB); assay: ELISA binding of Trx-cystine-knot miniproteins to off-target control FN-6789; design: species or system human; conditions: FN-6789, streptavidin, milk powder, BSA
[4] = SPR Biacore T-100, biotinylated human FN-67B89 on streptavidin chip, PBS-T, 1:1 Langmuir fit

T1 sequence (P02751 1080-1546): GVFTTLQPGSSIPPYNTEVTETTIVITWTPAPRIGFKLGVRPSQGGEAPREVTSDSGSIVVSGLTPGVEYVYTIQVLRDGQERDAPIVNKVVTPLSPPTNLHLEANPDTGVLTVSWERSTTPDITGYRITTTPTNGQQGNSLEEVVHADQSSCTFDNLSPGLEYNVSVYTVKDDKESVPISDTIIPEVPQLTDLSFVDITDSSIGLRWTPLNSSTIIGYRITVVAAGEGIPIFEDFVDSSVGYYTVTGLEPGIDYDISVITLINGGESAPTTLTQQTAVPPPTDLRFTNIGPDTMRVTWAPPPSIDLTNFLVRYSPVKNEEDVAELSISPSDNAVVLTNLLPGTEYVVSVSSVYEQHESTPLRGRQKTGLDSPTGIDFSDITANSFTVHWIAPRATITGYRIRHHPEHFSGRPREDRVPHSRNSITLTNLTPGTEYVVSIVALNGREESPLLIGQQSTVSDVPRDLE

MC-FN-0115-bio: biotinylated MC-FN-0115, tetramerized with Cy3-labeled streptavidin for staining (Biotin-PMCTQRANRIAACRRDSDCTGACICRGNGYCG; also: cystine-knot disulfides, pairing not given here)
staining of U-87 MG tumor sections [1]: did not stain

PMCTQRKNRIRLCRRDSDCTGACICRGNGYCG (also: bicyclic or more (positions not given here)) [MC-FN-010]
binding of tag-free variant to FN-67B89 by SPR [2]: detectable binding activity | affinity / binding constant towards biotinylated FN-67B89 (range in words) ([2]; SPR): single-digit micromolar range | Kd [2, 4]: 1580 nM | Koff [2, 4]: 0.07831 s⁻¹ | Kon ([2]; SPR Biacore T-100, biotinylated human FN-67B89 on streptavidin chip, PBS-T, 1:1 Langmuir fit, monomers multi-cycle, trimers single-cycle): 49500 M⁻¹ s⁻¹ | Ranking value (FN-B): 2.6 to 0.6

WKCQPTNGYRIRCRRDSDCPGDCICRGNGYCG (also: bicyclic or more (positions not given here)) [MC-FN-030, cystine-knot miniprotein clone from MCopt 1.0 library]
binding of tag-free variant to FN-67B89 by SPR [2]: no detectable binding | Ranking value (FN-B): 2.7 to 1.6

WTCTKKYPNTISCRRDSDCRVTCICRGNGYCG (also: bicyclic or more (positions not given here)) [MC-FN-020, cystine-knot miniprotein clone from MCopt 1.0 library, without R-I/V-R-(L) motif]
binding to off-target and control proteins [3]: strong binding | Ranking value (FN-B): 3.7 to 1.7
